According to paper PMC12141164, “Phase-1 study of vamotinib (PF-114), a 3rd generation BCR::ABL1 tyrosine kinase-inhibitor, in chronic myeloid leukaemia” (Annals of Hematology, 2025):
Read-outs that look alike come from different tables or passages of the source.

How the values were obtained:
[1] = test system: subjects with BCR::ABL1 positive CML; settings: for SAE: Upper respiratory tract infection: Relation to study drug No
Experimental: Open-label phase-1 study at 3 clinical centers with dose-escalation using a 3 + 3 scheme with a starting dose of 50 mg/d given continuously. A 28-days of therapy was defined as a cycle. Dose escalation for the subsequent cohort depended on the results of the safety assessment of subjects in the preceding cohort during the 28 days of therapy. Once an MTD was identified expanded cohorts of 10–15 subjects were recruited at doses of interest below the MTD. A modified accelerated dose-escalation regimen was used up to a dose of 400 mg. Dose could be increased for subjects in whom the dose was reduced because of an adverse drug reaction (ADR). Severity of adverse events was assessed using NCI CTC AE v4 [28].
The primary objective was to determine the MTD and DLT of vamotinib during the 1st cycle of therapy. Secondary objectives were to assess the safety and tolerability of vamotinib, determine pharmacokinetics and determine efficacy by response criteria according to 2013 ELN [29].
Safety set consists of all patients, who at least once took the study drug.
Population for DLT evaluation consists of all patients, who received sufficient amount of the study drug during Cycle 1 for adequate DLT assessment.
The sufficient amount of the drug is determined as the intake of ≥ 75 % of the scheduled dose during Cycle 1, except for doses missed due to the DLT.

[2] = test system: EPHA6; settings: kinase inhibition profiles; cited from earlier work
[3] = test system: ZAK; settings: kinase inhibition profiles; cited from earlier work
[4] = test system: animals; settings: cited from earlier work

For `Cc1ccc(C(=O)Nc2ccc(CN3CCN(C)CC3)c(C(F)(F)F)c2)cc1C#Cc1nnc2ccccn12` [vamotinib], the “SAE: Infections and infestations” value ([1]; Cohort 1 50 mg N=3) was 0 n (%), the “SAE: Infections and infestations” value ([1]; Cohort 2 100 mg N=3) was 0 n (%) and the “SAE: Infections and infestations” value ([1]; Cohort 3 200 mg N=11) was 0 n (%). For the same compound, the “SAE: Infections and infestations” value ([1]; Cohort 4 400 mg N=12) was 0 n (%), the “SAE: Infections and infestations” value ([1]; Cohort 5 500 mg N=3) was 0 n (%) and the “SAE: Infections and infestations” value ([1]; Cohort 6 600 mg N=6) was 2 (33.3)/2 n (%). For the same compound, the “SAE: Infections and infestations” value ([1]; Cohort 7 750 mg N=4) was 0 n (%), the “SAE: Infections and infestations” value ([1]; Cohort 8 300 mg N=9) was 3 (33.3)/3 n (%) and the “SAE: Infections and infestations” value ([1]; Overall N=51) was 5 (9.8)/5 n (%). For the same compound, the “SAE: Upper respiratory tract infection” value ([1]; Cohort 1 (50 mg) N=3) was 0 n (%), the “SAE: Upper respiratory tract infection” value ([1]; Cohort 2 (100 mg) N=3) was 0 n (%) and the “SAE: Upper respiratory tract infection” value ([1]; Cohort 3 (200 mg) N=11) was 0 n (%). The “SAE: Upper respiratory tract infection” value ([1]; Cohort 4 (400 mg) N=12) was 0 n (%), the “SAE: Upper respiratory tract infection” value ([1]; Cohort 5 (500 mg) N=3) was 0 n (%) and the “SAE: Upper respiratory tract infection” value ([1]; Cohort 6 (600 mg) N=6) was 1 (16.7)/1 n (%). The “SAE: Upper respiratory tract infection” value ([1]; Cohort 7 (750 mg) N=4) was 0 n (%), the “SAE: Upper respiratory tract infection” value ([1]; Cohort 8 (300 mg) N=9) was 0 n (%) and the “SAE: Upper respiratory tract infection” value ([1]; Overall N=51) was 1 (2.0)/1 n (%). For the same compound, the Abdominal pain ([1]; human, in vivo) was 2 (4) Number of subjects (percent), the Abdominal pain upper ([1]; human, in vivo) was 4 (8) Number of subjects (percent) and the Alanine aminotransferase increased ([1]; human, in vivo) was 2 (4) Number of subjects (percent). For the same compound, the Anal fissure ([1]; human, in vivo) was 2 (4) Number of subjects (percent), the Blood cholesterol increased ([1]; human, in vivo) was 3 (6) Number of subjects (percent) and the “Discontinued: adverse event” value ([1]; human, in vivo) was 6. For the same compound, the “Discontinued: intolerable adverse drug reaction in the opinion of the investigator” value ([1]; human, in vivo) was 2, the Dry skin ([1]; human, in vivo) was 9 (18) Number of subjects (percent) and the “Dry skin and rash” value ([1]; human, in vivo) was 8 subjects. For the same compound, the “Dry skin, Grade 3” value ([1]; human, in vivo) was 0 n, the “Dry skin, Total” value ([1]; human, in vivo) was 9 n and the Dyspepsia ([1]; human, in vivo) was 2 (4) Number of subjects (percent). The Erythema ([1]; human, in vivo) was 4 (8) Number of subjects (percent), the “Erythema, Grade 3” value ([1]; human, in vivo) was 0 n and the “Erythema, Total” value ([1]; human, in vivo) was 4 n. For the same compound, the Eye disorders ([1]; human, in vivo) was 3 (6) Number of subjects (percent), the Gastrointestinal disorders ([1]; human, in vivo) was 17 (33) Number of subjects (percent) and the Hepatitis toxic ([1]; human, in vivo) was 1 (2) Number of subjects (percent). The Hepato-biliary disorders ([1]; human, in vivo) was 1 (2) Number of subjects (percent), the Leukopenia ([1]; human, in vivo) was 1 (2) Number of subjects (percent) and the “Low density lipoprotein increased” value ([1]; human, in vivo) was 2 (4) Number of subjects (percent). For the same compound, the Nausea ([1]; human, in vivo) was 6 (12) Number of subjects (percent), the “Pruritus, Grade 3” value ([1]; human, in vivo) was 1 n and the “Pruritus, Total” value ([1]; human, in vivo) was 5 n. For the same compound, the “Psoriasiform dermatitis, Grade 3” value ([1]; human, in vivo) was 4 n, the “Psoriasiform dermatitis, Total” value ([1]; human, in vivo) was 19 n and the Rash ([1]; human, in vivo) was 32 subjects. The Rash papular ([1]; human, in vivo) was 2 (4) Number of subjects (percent), the “Rash papular, Grade 3” value ([1]; human, in vivo) was 0 n and the “Rash papular, Total” value ([1]; human, in vivo) was 2 n. For the same compound, the “SAE: Acute sinusitis” value ([1]; human, in vivo) was 1 (2.0)/1 n (%), the “SAE: Appendicitis” value ([1]; human, in vivo) was 1 (2.0)/1 n (%) and the “SAE: Atrial fibrillation” value ([1]; human, in vivo) was 1 (2.0)/1 n (%). For the same compound, the “SAE: Cardiac disorders” value ([1]; human, in vivo) was 1 (2.0)/1 n (%), the “SAE: Disease progression” value ([1]; human, in vivo) was 1 (2.0)/1 n (%) and the “SAE: General disorders and administration site conditions” value ([1]; human, in vivo) was 1 (2.0)/1 n (%). The “SAE: Peritonitis” value ([1]; human, in vivo) was 1 (2.0)/1 n (%), the “SAE: Pneumonia” value ([1]; human, in vivo) was 1 (2.0)/1 n (%) and the “Toxic skin eruption, Grade 3” value ([1]; human, in vivo) was 7 n. The “Toxic skin eruption, Total” value ([1]; human, in vivo) was 9 n, the Transaminases increased ([1]; human, in vivo) was 1 (2) Number of subjects (percent) and the “dose-reduction because of rash” value ([1]; human, in vivo) was 9 n. For the same compound, the “study withdrawal because of rash” value ([1]; human, in vivo) was 6 n, the “time after which skin lesions were resolved” value ([1]; human, in vivo) was 4–6 months and the “time to resolution of skin toxicity after discontinuation of the drug” value ([1]; human, in vivo) was 1–2 weeks. For the same compound, the DLTs ([1]; human, in vivo, 28 days) was 4, the “dose-limiting toxicity (DLT)” value ([1]; human, in vivo, 28 days) was “Grade-3 psoriasis-like skin toxicity” and the “dose-limiting toxicity (DLT)” value ([1]; in vivo) was “rash”. The “inhibition of EPHA6” value [2] was “not”, the “inhibition of ZAK” value [3] was “not” and the arterial occlusive events ([4]; pre-clinical studies in animals) was “no arterial occlusive events”. For the same compound, the cardio-vascular findings ([4]; pre-clinical toxicology studies) was “No cardio-vascular findings”.
